According to ChEMBL document CHEMBL5357020, “Reducing Self-Assembly by Increasing Net Charge: Effect on Biological Activity of Mastoparan C” (ACS Med Chem Lett, 2024):
pIC50: −log10 of the molar value. Active and inactive are the calls of the source. The rule behind the calls is not given here.

Legend:
[1] = tested on: Salmonella enterica; assay: Antimicrobial activity against Salmonella enterica ATCC 13076 assessed as reduction in microbial growth after 24 hrs by broth microdilution method; format: functional
[2] = tested on: Pseudomonas aeruginosa; assay: Antimicrobial activity against Pseudomonas aeruginosa ATCC 27853 assessed as reduction in microbial growth after 24 hrs by broth microdilution method; format: functional
[3] = tested on: Bacillus cereus; assay: Antimicrobial activity against Bacillus cereus ATCC 11778 assessed as reduction in microbial growth after 24 hrs by broth microdilution method; format: functional
[4] = tested on: Enterococcus faecalis; assay: Antimicrobial activity against Enterococcus faecalis ATCC 29212 assessed as reduction in microbial growth after 24 hrs by broth microdilution method; format: functional
[5] = tested on: Listeria monocytogenes; assay: Antimicrobial activity against Listeria monocytogenes ATCC 15313 assessed as reduction in microbial growth after 24 hrs by broth microdilution method; format: functional
[6] = tested on: Escherichia coli; assay: Antimicrobial activity against Escherichia coli ATCC 25922 assessed as reduction in microbial growth after 24 hrs by broth microdilution method; format: functional
[7] = tested on: Staphylococcus aureus; assay: Antimicrobial activity against Staphylococcus aureus ATCC 25923 assessed as reduction in microbial growth after 24 hrs by broth microdilution method; format: functional
[8] = tested on: Candida albicans; assay: Antifungal activity against Candida albicans ATCC 10231 assessed as reduction in fungal growth after 24 hrs by broth microdilution method; format: functional
[9] = tested on: Erythrocyte; assay: Hemolytic activity in human RBC assessed as hemolysis at 2 to 128 uM incubated for 30 mins; format: toxicity, cell-based; conditions: 0.5 h, dose 2-128 µM
[10] = tested on: Erythrocyte; assay: Hemolytic activity in human RBC assessed as hemolysis at 32 uM incubated for 30 mins; format: toxicity, cell-based; conditions: 0.5 h
[11] = tested on: A-427; assay: Anticancer activity against human A-427 cells assessed as inhibition of cell growth incubated for 24 hrs by CCK-8 assay; format: functional, cell-based; conditions: A-427, 24 h
[12] = tested on: NCI-H441; assay: Anticancer activity against human NCI-H441 cells assessed as inhibition of cell growth incubated for 24 hrs by CCK-8 assay; format: functional, cell-based

Row | Compound | MIC [1] [µM] | MIC [2] [µM] | MIC [3] [µM] | MIC [4] [µM] | MIC [5] [µM] | MIC [6] [µM] | MIC [7] [µM] | MIC [8] [µM] | Activity [9] | Activity [10] | pIC50 [11] | Activity [12]
1 | O=C(N[C@H](CO)[C@H](O)c1ccc([N+](=O)[O-])cc1)C(Cl)Cl [CHLORAMPHENICOL] | 8 | > 128 | 8 | 64 | 64 | 8 | 32 | > 128 | – | – | – | –
2 | NC[C@H]1O[C@H](O[C@H]2[C@H](O)[C@@H](O[C@H]3O[C@H](CO)[C@@H](O)[C@H](N)[C@H]3O)[C@H](N)C[C@@H]2N)[C@H](O)[C@@H](O)[C@@H]1O [KANAMYCIN] | 16 | > 128 | 64 | > 128 | 32 | 32 | 32 | > 128 | – | – | – | –
3 | H-LNLKALLAVAKKIL-NH2 | 32 | 64 | 4 | 4 | 8 | 8 | 32 | 8 | Non-Toxic | Toxic | – | –
4 | H-LNLKALLKVAKKIL-NH2 | 64 | 64 | 8 | 4 | 4 | 8 | 32 | 16 | Non-Toxic | Toxic | 5.15 | Active
5 | H-LNLKKLLAVAKKIL-NH2 | 64 | 128 | 16 | 8 | 8 | 8 | 64 | 32 | Non-Toxic | – | 5.29 | Active
6 | H-LNLKKLLKVAKKIL-NH2 | 32 | 64 | 16 | 4 | 4 | 8 | 32 | 16 | Non-Toxic | – | – | –
